Structures can show the parent of a compound that is named as a salt.
Target: T1, CETP (Homo sapiens, UniProt P11597)
T1 construct: The donor lipoprotein obtained above was added to plasma of healthy subject; from tissue; host or cells: whole plasma of healthy subject
T1 sequence (P11597 18-493): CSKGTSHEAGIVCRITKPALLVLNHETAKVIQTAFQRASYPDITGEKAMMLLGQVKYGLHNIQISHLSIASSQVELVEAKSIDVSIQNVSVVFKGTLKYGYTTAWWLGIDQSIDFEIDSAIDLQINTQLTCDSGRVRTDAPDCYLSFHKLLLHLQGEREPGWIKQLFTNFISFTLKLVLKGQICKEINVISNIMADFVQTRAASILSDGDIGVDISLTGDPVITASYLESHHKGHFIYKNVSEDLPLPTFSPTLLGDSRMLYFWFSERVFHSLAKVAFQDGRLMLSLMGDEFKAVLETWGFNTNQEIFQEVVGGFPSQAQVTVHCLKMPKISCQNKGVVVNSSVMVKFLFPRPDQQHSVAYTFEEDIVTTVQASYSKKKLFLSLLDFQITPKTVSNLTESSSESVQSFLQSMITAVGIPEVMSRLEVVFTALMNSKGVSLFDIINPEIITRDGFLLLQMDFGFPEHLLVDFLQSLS
Assay: Inhibitory effect in vitro on CETP activity in total plasma
Assay type: biochemical
Conditions: plasma of healthy subject with [3H]CE-HDL3, 37° C., 4 hr; average values
How it was run: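 Healthy-donor plasma spiked with [3H]cholesteryl ester-labelled HDL3 (1,000 dpm/μL) was incubated with compound (DMF vehicle) for 4 hr at 37 °C or 4 °C. HDL was separated by MgCl2/dextran sulfate precipitation and supernatant radioactivity counted. IC50 is the concentration giving 50% inhibition of CETP activity.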

| Structure (SMILES) | IC50 [nM] |
| --- | --- |
| CCN(CCCCC(=O)OC)c1cc2c(cc1CN(Cc1cc(C#N)cc(C(F)(F)F)c1)c1ccn(C)n1)CCCC2 [Example 64, methyl 5-[N-(3-{[N′-(3-cyano-5-trifluoromethylbenzyl)-N′-(1-methyl-1H-pyrazol-3-yl)amino]methyl}-5,6,7,8-tetrahydronaphthalen-2-yl)-N-ethylamino]pentanoate hydrochloride] | 750 |
| CCN(CCCCC(=O)OC)c1cc2c(cc1CN(Cc1cc(C#N)cc(C(F)(F)F)c1)c1nnn(C)n1)CCC2.Cl [Example 36, hydrochloride] | 340 |
| CCN(C[C@H]1CC[C@H](C(=O)O)CC1)c1cc2c(cc1CN(Cc1cc(C(F)(F)F)cc(C(F)(F)F)c1)c1noc(C)n1)CCC2 [Example 82, trans-4-{[N-(6-{[N′-[3,5-bis(trifluoromethyl)benzyl]-N′-(5-methyl-[1,2,4]oxadiazol-3-yl)amino]methyl}indan-5-yl)-N-ethylamino]methyl}cyclohexanecarboxylic acid] | 590 |
| CCN(CC1CCCC1)c1ccc(C(F)(F)F)cc1CN(Cc1cc(C#N)cc(C(F)(F)F)c1)c1nnn(C)n1 [Example 34, 3-{[N-[2-(N′-cyclopentylmethyl-N′-ethylamino)-5-trifluoromethylbenzyl]-N-(2-methyl-2H-tetrazol-5-yl)amino]methyl}-5-trifluoromethylbenzonitrile hydrochloride] | 220 |
| CCN(CCCCC(=O)O)c1cc2c(cc1CN(Cc1cc(C#N)cc(C(F)(F)F)c1)c1ncn(C)n1)CCCC2 [Example 77, 5-[N-(3-{[N′-(3-cyano-5-trifluoromethylbenzyl)-N′-(1-methyl-1H-[1,2,4]triazol-3-yl)amino]methyl}-5,6,7,8-tetrahydronaphthalen-2-yl)-N-ethylamino]pentanoic acid hydrochloride] | 540 |
| CCN(CCC(C)(C)CC(=O)O)c1cc2c(cc1CN(Cc1cc(C(F)(F)F)cc(C(F)(F)F)c1)c1noc(C)n1)CCC2 [Example 103, 5-[N-(6-{[N′-[3,5-bis(trifluoromethyl)benzyl]-N′-(5-methyl-[1,2,4]oxadiazol-3-yl)amino]methyl}indan-5-yl)-N-ethylamino]-3,3-dimethylpentanoic acid hydrochloride] | 430 |
| CCN(C[C@H]1CC[C@H](C(=O)O)CC1)c1cc2c(cc1CN(Cc1cc(C(F)(F)F)cc(C(F)(F)F)c1)c1ncn(C)n1)CCCC2 [Example 69, trans-4-{[N-(3-{[N′-[3,5-bis(trifluoromethyl)benzyl]-N′-(1-methyl-1H-[1,2,4]triazol-3-yl)amino]methyl}-5,6,7,8-tetrahydronaphthalen-2-yl)-N-ethylamino]methyl}cyclohexanecarboxylic acid hydrochloride] | 340 |
| CCN(C[C@H]1CC[C@H](C(=O)O)CC1)c1ccc(OC(F)(F)F)cc1CN(Cc1cc(Cl)cc(C(F)(F)F)c1)c1nnn(C)n1 [Example 131, trans-4-{[N-(2-{[N′-(3-chloro-5-trifluoromethylbenzyl)-N′-(2-methyl-2H-tetrazol-5-yl)amino]methyl}-4-trifluoromethoxyphenyl)-N-ethylamino]methyl}cyclohexanecarboxylic acid hydrochloride] | 170 |
| CCN(CC1CCCC1)c1cc2c(cc1CN(Cc1cc(C(F)(F)F)cc(C(F)(F)F)c1)c1nnn(C)n1)CCCC2 [Example 1, N-[3-(N′-cyclopentylmethyl-N′-ethylamino)-5,6,7,8-tetrahydronaphthalen-2-ylmethyl]-N-[3,5-bis(trifluoromethyl)benzyl]-(2-methyl-2H-tetrazol-5-yl)amine] | 230 |
| CCN(C[C@H]1CC[C@H](C(=O)O)CC1)c1cc2c(cc1CN(Cc1cc(C#N)cc(C(F)(F)F)c1)c1nnn(C)n1)CCC2 [Example 52, trans-4-{[N-(6-{[N′-(3-cyano-5-trifluoromethylbenzyl)-N′-(2-methyl-2H-tetrazol-5-yl)amino]methyl}indan-5-yl)-N-ethylamino]methyl}cyclohexanecarboxylic acid hydrochloride] | 370 |
| CCN(CC1CCCC1)c1cc2c(cc1CN(Cc1cc(C(F)(F)F)cc(C(F)(F)F)c1)c1nnn(C)n1)CCC2 [Example 4, N-[3,5-bis(trifluoromethyl)benzyl]-N-[6-(N′-cyclopentylmethyl-N′-ethylamino)indan-5-ylmethyl]-(2-methyl-2H-tetrazol-5-yl)amine hydrochloride] | 180 |
| CCN(CC1CCCC1)c1cc2c(cc1CN(Cc1cc(C(F)(F)F)cc(C(F)(F)F)c1)c1cc(C)[nH]n1)CCC2 [Example 7, N-[6-(N′-cyclopentylmethyl-N′-ethylamino)indan-5-ylmethyl]-N-[3,5-bis(trifluoromethyl)benzyl]-(5-methyl-1H-pyrazol-3-yl)amine] | 270 |
| CCN(C[C@H]1CC[C@H](C(=O)O)CC1)c1ccc(OC(F)(F)F)cc1CN(Cc1cc(C(F)(F)F)cc(C(F)(F)F)c1)c1ccc(C)cc1 [Example 127, trans-4-{[N-(2-{[N′-[3,5-bis(trifluoromethyl)benzyl]-N′-(p-tolyl)amino]methyl}-4-trifluoromethoxyphenyl)-N-ethylamino]methyl}cyclohexanecarboxylic acid hydrochloride] | 370 |
| CCN(CC1CCCC1)c1ccc(C(F)(F)F)cc1CN(Cc1cc(C(F)(F)F)cc(C(F)(F)F)c1)c1nnn(C)n1 [Example 33, N-[3,5-bis(trifluoromethyl)benzyl]-N-[2-(N′-cyclopentylmethyl-N′-ethylamino)-5-trifluoromethylbenzyl]-(2-methyl-2H-tetrazol-5-yl)amine hydrochloride] | 560 |
| CCN(C[C@H]1CC[C@H](C(=O)O)CC1)c1cc2c(cc1CN(Cc1cc(C(F)(F)F)cc(C(F)(F)F)c1)c1nnn(C)n1)CCCC2 [Example 67, trans-4-{[N-(3-{[N′-[3,5-bis(trifluoromethyl)benzyl]-N′-(2-methyl-2H-tetrazol-5-yl)amino]methyl}-5,6,7,8-tetrahydronaphthalen-2-yl)-N-ethylamino]methyl}cyclohexanecarboxylic acid hydrochloride] | 260 |
| CCN(CC1CCCC1)c1cc2c(cc1CN(Cc1cc(C(F)(F)F)cc(C(F)(F)F)c1)c1cnn(C)c1)CCC2 [Example 28, N-[3,5-bis(trifluoromethyl)benzyl]-N-[6-(N′-cyclopentylmethyl-N′-ethylamino)indan-5-ylmethyl]-(1-methyl-1H-pyrazol-4-yl)amine hydrochloride] | 440 |
| CCN(CC1CCCC1)c1cc2c(cc1CN(Cc1cc(C(F)(F)F)cc(C(F)(F)F)c1)c1nnn(CC)n1)CCC2 [Example 11, N-[3,5-bis(trifluoromethyl)benzyl]-N-[6-(N′-cyclopentylmethyl-N′-ethylamino)indan-5-ylmethyl]-(2-ethyl-2H-tetrazol-5-yl)amine] | 630 |
| CCN(C[C@H]1CC[C@H](C(=O)O)CC1)c1cc2c(cc1CN(Cc1cc(C(F)(F)F)cc(C(F)(F)F)c1)c1cc(C)no1)CCCC2 [Example 71, trans-4-{[N-(3-{[N′-[3,5-bis(trifluoromethyl)benzyl]-N′-(3-methylisoxazol-5-yl)amino]methyl}-5,6,7,8-tetrahydronaphthalen-2-yl)-N-ethylamino]methyl}cyclohexanecarboxylic acid hydrochloride] | 440 |

Reference: patent publication US7807701B2, “Dibenzylamine compounds and pharmaceutical use thereof” (Japan Tobacco Inc., priority 2002, dated 2010)
